Measured values as given in ChEMBL document CHEMBL1155132, “Synthesis and structure-activity relationship of 1H-indole-3-carboxylic acid pyridine-3-ylamides: a novel series of 5-HT2C receptor antagonists” (Bioorg Med Chem Lett, 2008).
pIC50: −log10 of the molar value.

Assays:
[1] = molecular target: T1, 5-hydroxytryptamine receptor 2C (Homo sapiens, UniProt P28335); assay: Displacement of [3H]mesulergine at human cloned 5HT2C receptor expressed in CHOK1 cell; format: cell-based, CHO-K1
T1 sequence (P28335 whole entry): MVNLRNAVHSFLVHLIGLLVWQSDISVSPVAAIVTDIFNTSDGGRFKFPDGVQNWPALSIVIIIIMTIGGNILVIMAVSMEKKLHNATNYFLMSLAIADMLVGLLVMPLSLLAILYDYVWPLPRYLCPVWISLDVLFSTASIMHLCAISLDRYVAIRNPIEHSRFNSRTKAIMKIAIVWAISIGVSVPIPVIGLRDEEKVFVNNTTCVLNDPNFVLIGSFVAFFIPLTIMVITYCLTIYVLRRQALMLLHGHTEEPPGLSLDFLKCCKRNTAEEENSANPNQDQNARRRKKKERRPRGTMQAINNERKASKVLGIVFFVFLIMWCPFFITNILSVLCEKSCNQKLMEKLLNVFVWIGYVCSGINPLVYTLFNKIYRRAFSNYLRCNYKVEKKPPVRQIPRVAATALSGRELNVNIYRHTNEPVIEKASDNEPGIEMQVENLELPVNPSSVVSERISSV

[2] = molecular target: T2, 5-hydroxytryptamine receptor 1A (Homo sapiens, UniProt P08908); assay: Displacement of [3H]8-OH-DPAT from human cloned 5HT1A receptor
T2 sequence (P08908 whole entry): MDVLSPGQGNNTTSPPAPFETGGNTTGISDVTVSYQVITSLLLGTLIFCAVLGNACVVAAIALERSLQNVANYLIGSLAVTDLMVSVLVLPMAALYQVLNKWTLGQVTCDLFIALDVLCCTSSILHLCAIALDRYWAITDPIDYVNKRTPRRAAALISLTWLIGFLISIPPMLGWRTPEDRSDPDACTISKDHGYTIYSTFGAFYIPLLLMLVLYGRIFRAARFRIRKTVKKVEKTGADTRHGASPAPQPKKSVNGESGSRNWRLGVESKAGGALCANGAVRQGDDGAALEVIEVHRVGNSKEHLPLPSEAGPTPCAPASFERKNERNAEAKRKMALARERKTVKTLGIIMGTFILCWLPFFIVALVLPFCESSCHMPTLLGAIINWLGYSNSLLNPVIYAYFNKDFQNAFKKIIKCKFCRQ

[3] = molecular target: 5-hydroxytryptamine receptor 6 (Homo sapiens, UniProt P50406); assay: Displacement of [3H]LSD from human cloned 5HT6 receptor
Sequence of 5-hydroxytryptamine receptor 6 (P50406 whole entry): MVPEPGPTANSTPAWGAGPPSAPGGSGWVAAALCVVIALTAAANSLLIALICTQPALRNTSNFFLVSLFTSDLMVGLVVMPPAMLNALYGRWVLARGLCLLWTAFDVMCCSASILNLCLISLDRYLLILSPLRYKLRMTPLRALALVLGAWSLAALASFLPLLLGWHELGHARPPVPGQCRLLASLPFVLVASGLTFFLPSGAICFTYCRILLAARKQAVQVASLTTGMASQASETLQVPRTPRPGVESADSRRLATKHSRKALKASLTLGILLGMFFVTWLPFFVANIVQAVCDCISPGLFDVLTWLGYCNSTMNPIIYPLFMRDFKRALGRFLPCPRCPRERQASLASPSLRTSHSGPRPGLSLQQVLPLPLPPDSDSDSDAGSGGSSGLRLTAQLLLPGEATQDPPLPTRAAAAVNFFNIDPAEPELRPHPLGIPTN

[4] = molecular target: 5-hydroxytryptamine receptor 2A (Homo sapiens, UniProt P28223); assay: Displacement of [3H]ketanserin from human cloned 5HT2A receptor
Sequence of 5-hydroxytryptamine receptor 2A (P28223 whole entry): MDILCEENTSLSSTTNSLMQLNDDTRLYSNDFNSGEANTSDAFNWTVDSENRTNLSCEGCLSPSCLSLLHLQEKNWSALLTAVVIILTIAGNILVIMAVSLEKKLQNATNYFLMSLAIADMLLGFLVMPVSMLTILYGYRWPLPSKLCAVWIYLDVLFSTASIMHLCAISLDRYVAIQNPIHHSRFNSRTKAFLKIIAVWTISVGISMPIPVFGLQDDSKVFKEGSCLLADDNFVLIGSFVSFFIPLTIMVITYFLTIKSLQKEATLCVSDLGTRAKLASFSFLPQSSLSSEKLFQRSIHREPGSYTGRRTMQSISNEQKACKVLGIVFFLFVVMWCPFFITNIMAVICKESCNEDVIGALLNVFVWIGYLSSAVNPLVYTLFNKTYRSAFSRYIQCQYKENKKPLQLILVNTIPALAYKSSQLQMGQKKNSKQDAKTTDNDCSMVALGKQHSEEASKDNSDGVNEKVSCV

D(3) dopamine receptor = D(3) dopamine receptor (Homo sapiens, UniProt P35462); assay: Displacement of [3H]spiperone from human cloned dopamine D3 receptor
Sequence of D(3) dopamine receptor (P35462 whole entry): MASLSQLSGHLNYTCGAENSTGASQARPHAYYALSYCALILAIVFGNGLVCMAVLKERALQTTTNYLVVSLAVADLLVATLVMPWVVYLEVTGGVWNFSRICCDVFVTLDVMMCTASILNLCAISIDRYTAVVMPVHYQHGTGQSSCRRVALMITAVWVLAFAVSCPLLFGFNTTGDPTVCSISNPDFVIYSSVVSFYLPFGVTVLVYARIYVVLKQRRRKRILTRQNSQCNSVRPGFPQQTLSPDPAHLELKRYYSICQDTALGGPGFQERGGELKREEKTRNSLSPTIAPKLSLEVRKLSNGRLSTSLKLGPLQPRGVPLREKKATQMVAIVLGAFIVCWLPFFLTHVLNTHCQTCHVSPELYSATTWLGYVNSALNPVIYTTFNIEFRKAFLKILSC

D(4) dopamine receptor = molecular target: T3, D(4) dopamine receptor (Homo sapiens, UniProt P21917); assay: Displacement of [3H]spiperone from human cloned dopamine D4 receptor
T3 sequence (P21917 whole entry): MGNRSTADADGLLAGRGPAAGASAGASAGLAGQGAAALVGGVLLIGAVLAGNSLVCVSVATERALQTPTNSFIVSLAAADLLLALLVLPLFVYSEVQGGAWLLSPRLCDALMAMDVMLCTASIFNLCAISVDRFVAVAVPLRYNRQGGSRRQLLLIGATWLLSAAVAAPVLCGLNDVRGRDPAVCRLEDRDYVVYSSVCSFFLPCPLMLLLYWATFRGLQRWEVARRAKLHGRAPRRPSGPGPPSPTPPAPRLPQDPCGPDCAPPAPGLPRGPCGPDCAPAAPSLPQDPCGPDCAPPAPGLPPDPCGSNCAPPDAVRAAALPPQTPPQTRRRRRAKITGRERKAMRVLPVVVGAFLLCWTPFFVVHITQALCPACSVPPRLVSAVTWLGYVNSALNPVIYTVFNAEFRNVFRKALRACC

D(2) dopamine receptor = D(2) dopamine receptor (Homo sapiens, UniProt P14416); assay: Displacement of [3H]spiperone from human cloned dopamine D2 receptor
Sequence of D(2) dopamine receptor (P14416 whole entry): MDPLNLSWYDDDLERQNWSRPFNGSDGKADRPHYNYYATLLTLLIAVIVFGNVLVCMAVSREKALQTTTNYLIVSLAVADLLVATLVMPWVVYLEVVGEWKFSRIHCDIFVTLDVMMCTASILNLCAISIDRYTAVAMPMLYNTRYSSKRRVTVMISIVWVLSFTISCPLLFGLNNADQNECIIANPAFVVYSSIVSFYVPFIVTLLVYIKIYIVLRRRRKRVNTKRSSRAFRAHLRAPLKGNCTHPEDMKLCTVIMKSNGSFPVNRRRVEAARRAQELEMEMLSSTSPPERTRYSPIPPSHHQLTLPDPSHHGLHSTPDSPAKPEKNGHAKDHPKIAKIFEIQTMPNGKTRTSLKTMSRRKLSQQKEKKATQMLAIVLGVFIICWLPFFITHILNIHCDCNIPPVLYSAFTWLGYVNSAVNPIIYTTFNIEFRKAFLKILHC

[5] = molecular target: 5-hydroxytryptamine receptor 7 (Homo sapiens, UniProt P34969); assay: Displacement of [3H]LSD from human cloned 5HT7 receptor
Sequence of 5-hydroxytryptamine receptor 7 (P34969 whole entry): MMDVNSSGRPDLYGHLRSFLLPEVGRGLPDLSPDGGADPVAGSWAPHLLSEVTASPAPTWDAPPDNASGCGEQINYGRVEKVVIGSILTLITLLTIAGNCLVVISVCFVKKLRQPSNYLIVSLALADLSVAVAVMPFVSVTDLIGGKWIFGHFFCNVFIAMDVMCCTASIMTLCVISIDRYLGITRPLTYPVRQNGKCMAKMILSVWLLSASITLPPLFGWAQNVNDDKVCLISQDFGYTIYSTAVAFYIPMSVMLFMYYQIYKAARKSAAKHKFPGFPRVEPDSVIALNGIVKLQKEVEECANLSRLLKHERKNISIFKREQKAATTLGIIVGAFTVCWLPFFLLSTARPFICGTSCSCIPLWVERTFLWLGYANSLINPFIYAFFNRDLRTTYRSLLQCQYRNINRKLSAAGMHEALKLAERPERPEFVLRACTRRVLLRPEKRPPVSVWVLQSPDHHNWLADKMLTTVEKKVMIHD

pIC50 [1] | pIC50 (D(4) dopamine receptor) | SMILES | other results
7.23 | – | Cc1ncccc1Oc1ccc(NC(=O)c2cc3ccccc3[nH]2)cn1 | –
8.22 | – | O=C(Nc1ccc(OCc2ccccn2)nc1)c1c[nH]c2ccccc12 | –
– | < 5.00 | O=C(Nc1ccc(Oc2cccnc2)nc1)c1c[nH]c2ccccc12 | pIC50 [2]: < 5.00; pIC50 [3]: < 5.00; pIC50 [4]: < 6.00; pIC50 (D(3) dopamine receptor): < 5.00; pIC50 (D(2) dopamine receptor): < 5.00; pIC50 [5]: < 5.00
– | < 5.00 | O=C(Nc1ccc(Oc2cccnc2Cl)nc1)c1c[nH]c2ccccc12 | –
< 5.00 | – | O=C(Nc1cccnc1)c1c[nH]c2ccccc12 | –
– | < 6.00 | Cc1cc2c(cc1C(F)(F)F)N(C(=O)Nc1ccc(Oc3cccnc3C)nc1)CC2 [SB-243213] | –
